According to PMC10424183, “Determination of Ligand-Binding Affinity (Kd) Using Transverse Relaxation Rate (R2) in the Ligand-Observed ^1H NMR Experiment and Applications to Fragment-Based Drug Discovery” (Journal of Medicinal Chemistry, 2023):
Like-named read-outs stand apart in the source and are kept apart here.

How the values were obtained:
BCL6 BTB [1] = molecular target: T1, BCL6 BTB (Homo sapiens, UniProt P41182); assay: R2KD ligand-observed 1H NMR assay (Kd from transverse relaxation rate R2); assay type: binding
T1 construct: made in house
Experimental: Four aqueous stock solutions were prepared in Eppendorf Safe-Lock tubes (Cat no. 0030120094) by manual pipetting: (1) ligand aqueous stock solution was prepared by adding 50 mM ligand DMSO-d6 solution to aqueous buffer; (2) dimethyl sulfoxide (DMSO) aqueous stock solution was prepared by adding the same volume of DMSO-d6 as ligand DMSO-d6 solution to aqueous buffer; (3) protein aqueous stock solution was prepared by adding protein solution to aqueous buffer; and (4) aqueous solution was the buffer used in the assay.
Samples were prepared on a Bruker SamplePro-Tube liquid handler by mixing different volume of the four aqueous stocks in 96-well microplates (Greiner 650201) and then transferred to 3 mm NMR tubes (Figure 2). 10 samples were prepared: samples 1–8 containing increasing ligand concentration (maintaining constant protein concentration); sample 9 and 10 containing only ligands at two different concentrations (protein absent). These two samples served as control samples to obtain the R2 values of free ligand. The final percentage of DMSO-d6 in all samples were identical to minimize possible impacts of DMSO-d6.
The R2 values of four aromatic ^1H-NMR signals (Figure 3B) were experimentally determined (Figure 3C) and (R2,obs – R2F) * LT values were calculated using Excel and used as y-axis values in Prism, while ligand concentrations were plotted as the x-axis values (Figure 3D). All four NMR peaks were used to fit a global Kd with non-linear regression using a customized equation (see Experimental Section), while α values were fitted as an individual parameter for each peak (Figure 3E) as α values differ depending on the individual proton’s environment. While it was possible to fit Kd values using individual NMR peaks and then average the values (Figure 3F), we found using a global fitting algorithm increased robustness of curve fitting and better accommodated outliers in the data. The goodness of fit was judged by 95% confidence interval (CI) (profile likelihood) values and R squared value. The global Kd obtained here is close to the Ki value (54 vs 50 μM) although from our accuracy study, the differences can be larger (see section “Assay Accuracy”).
NMR data were collected at 298 K on a Bruker AVANCE NEO 600 MHz spectrometer, equipped with 5 mm TCI CryoProbe using Bruker Topspin 4.0. The T2 relaxation experiment was acquired using pulse program CPMG with 3-9-19 pulse sequence with gradients incorporated to suppress the water signal.[22] Extra water suppression was achieved by adding presaturation during D1. The spin-echo period (delay-180°-delay) was set to 1 msec (d20 is 500 μs), and the relaxation delay (d1) was set to 10 s. The pseudo-2D experiment contained nine slices with spin-echo period repeated the following times: 4, 20, 100, 200, 300, 500, 700, 1000, and 2000. The T2 relaxation experiment was processed using MestReNova 14.1, and Data Analysis Module of MestReNova was used to obtain integrals of individual ^1H-NMR signals, which were used to calculate R2 with equation I = I0exp (−tR2).
Nonlinear regression analysis was carried out using GraphPad Prism 9.2.0. Equation 12 was defined in user-defined equations as: Y = 0.5α*((X + Kd + P) −sqrt((sqr(X + Kd + P)) – 4*P*X)) where Y was calculated from eq 13 and X is the total ligand concentration. Three parameters: P, α, and Kd were in the equation with the initial value set at 1. In the default constraints setting, P was “constant equal to” the total protein concentration, Kd was “shared value for all data sets”, and α was “must be greater than […]”. CIs of parameters was calculated at 95% level using Asymmetrical (Profile-likelihood) CI.

BCL6 BTB [2] = molecular target: T1, BCL6 BTB; set-up: method as in PMID 36329085; settings: SPR; read-out: Kd value from SPR assay (printed in the Ki column, footnote a); cited from earlier work

In the case of `Cc1cc(Nc2ccc(F)cc2)n2ncnc2n1` [CCT040036], the Kd (BCL6 BTB [1]; R2KD assay upper detection limit example, read-out: largest Kd determined accurately) is reported as ~1000 µM, the Kd (BCL6 BTB [1]; R2KD assay, repeated three times (average), read-out: Kd) is reported as 1050 µM and the Kd (BCL6 BTB [1]; single experiment, four peaks, global Kd fitting, unit inferred, read-out: Kd, global (shared) fit) is reported as 905 µM. The Kd (BCL6 BTB [2]) was 1500 µM.
